This note sets out measurements from ChEMBL document CHEMBL5108030, “Structure activity relationships leading to the identification of the indirect activator of AMPK, R419” (Bioorg Med Chem, 2022).

In series [1] the target is AMP-activated protein kinase, AMPK. Nature of the series: Activation of AMPK in human HepG2 cells assessed as increase in ACC phosphorylation at Ser79 incubated for 1 hr. The format is cell-based.
Series [2] has the same target. Put plainly: Activation of AMPK in human HepG2 cells assessed as reduction in mitochondrial ATP production incubated for 1 hr. The format is cell-based.
A short description of series [3]: Microsomal stability in human liver microsomes assessed as half life. The series is classed as ADME, Microsome. (Liver microsomes are a subcellular fraction often used to study metabolism.)
For series [4], the target named is T1, Cytochrome P450 3A4 (Homo sapiens, UniProt P08684). Put plainly: Inhibition of CYP3A4 (unknown origin) in presence of NADPH. The format is ADME.
Series [5] deals with T1, Cytochrome P450 3A4. Put plainly: Inhibition of CYP3A4 (unknown origin). The series is classed as ADME.
The target in series [6] is T2, hERG (KCNH2) (Homo sapiens, UniProt Q12809). Put plainly: Inhibition of human ERG at 3 uM. The format is toxicity.
Series [7] can be described thus: Clearance in rat at 1 mg/kg,iv measured upto 10 hrs. The series is classed as ADME, organism-based. To be noted: in vivo.
The target in series [8] is T2, hERG (KCNH2). Put plainly: Inhibition of human ERG at 10 uM. The format is toxicity.
For the next series, the system named is A549. Put plainly: Antiproliferative activity against human A549 cells assessed as cell growth inhibition incubated for 48 hrs by DAPI staining assay. To be noted: A549, 48 h. The format is functional, cell-based.
Another series relates to NCI-H1299. Put plainly: Antiproliferative activity against human NCI-H1299 cells assessed as cell growth inhibition incubated for 48 hrs by DAPI staining assay. To be noted: NCI-H1299, 48 h. The series is classed as functional, cell-based.
Series [9] is described as follows: Half life in rat at 1 mg/kg,iv measured upto 10 hrs. The format is ADME, organism-based. To be noted: in vivo.
A short description of series [10]: Volume of distribution at steady state in rat at 1 mg/kg,iv measured upto 10 hrs. The format is ADME, organism-based. To be noted: in vivo, read-out: Vdss.
The nature of series [11]: AUC in rat at 5 mg/kg,po measured upto 10 hrs. The series is classed as ADME, organism-based. On the set-up: time < 10 hrs, dose 5 mg/kg, route po. The note with it: in vivo.
Series [12] can be described thus: Oral bioavailability in rat at 5 mg/kg measured upto 10 hrs. The format is ADME, organism-based. The note with it: in vivo.
Series [13] in a line: Drug concentration in diet-induced obesity model of C57BL/6J mouse at 100 mg/kg,po measured after 10 days. The series is classed as ADME, organism-based. The note with it: in vivo, time 10 day, read-out: Drug uptake.
Series [14] can be described thus: Drug concentration in diet-induced obesity model of C57BL/6J mouse at 200 mg/kg,po measured after 10 days. The format is ADME, organism-based. The note with it: in vivo, time 10 day, read-out: Drug uptake.
The nature of series [15]: Drug concentration in high fat diet-induced obesity model of C57BL/6J mouse at 100 mg/kg,po measured after 10 days. The format is ADME, organism-based. The note with it: in vivo, time 10 day, read-out: Drug uptake.
The nature of series [16]: Drug concentration in C57BL/6J mouse at 5 mg/kg,po measured after 10 days. The series is classed as ADME, organism-based. To be noted: in vivo, time 10 day, read-out: Drug uptake.
Series [17] is described as follows: AUC in diet-induced obesity model of C57BL/6J mouse at 100 mg/kg,po measured after 10 days. On the set-up: time 10 day, dose 100 mg/kg, route po. To be noted: in vivo, 240 h. The format is ADME, organism-based.
Series [18] is described as follows: AUC in diet-induced obesity model of C57BL/6J mouse at 200 mg/kg,po measured after 10 days. The series is classed as ADME, organism-based. On the set-up: time 10 day, dose 200 mg/kg, route po. The note with it: in vivo, 240 h.
Series [19] is described as follows: AUC in high fat diet-induced obesity model of C57BL/6J mouse at 100 mg/kg,po measured after 10 days. Set-up: dose 100 mg/kg, time 10 day, route po. The format is ADME, organism-based. To be noted: in vivo, 240 h.
Series [20] is described as follows: AUC in C57BL/6J mouse at 5 mg/kg,po measured after 10 days. To be noted: in vivo, 240 h. On the set-up: time 10 day, dose 5 mg/kg, route po. The format is ADME, organism-based.
Series [21] relates to Mus musculus. Nature of the series: Hypoglycemic activity in high fat diet-induced obesity mouse model assessed as improvement in glucose tolerance at 200 mg/kg,po for 4 weeks by OGTT. The format is functional, organism-based.
The subject of series [22] is Mus musculus. Put plainly: Hypoglycemic activity in high fat diet-induced obesity mouse model assessed as decrease in AUC blood glucose at 200 mg/kg,po for 4 weeks by OGTT. The format is functional, organism-based.

Calls of active or inactive are those of the source. No cut-off for these calls is given here. Bounds are passed on as bounds.

T2 sequence (Q12809 whole entry): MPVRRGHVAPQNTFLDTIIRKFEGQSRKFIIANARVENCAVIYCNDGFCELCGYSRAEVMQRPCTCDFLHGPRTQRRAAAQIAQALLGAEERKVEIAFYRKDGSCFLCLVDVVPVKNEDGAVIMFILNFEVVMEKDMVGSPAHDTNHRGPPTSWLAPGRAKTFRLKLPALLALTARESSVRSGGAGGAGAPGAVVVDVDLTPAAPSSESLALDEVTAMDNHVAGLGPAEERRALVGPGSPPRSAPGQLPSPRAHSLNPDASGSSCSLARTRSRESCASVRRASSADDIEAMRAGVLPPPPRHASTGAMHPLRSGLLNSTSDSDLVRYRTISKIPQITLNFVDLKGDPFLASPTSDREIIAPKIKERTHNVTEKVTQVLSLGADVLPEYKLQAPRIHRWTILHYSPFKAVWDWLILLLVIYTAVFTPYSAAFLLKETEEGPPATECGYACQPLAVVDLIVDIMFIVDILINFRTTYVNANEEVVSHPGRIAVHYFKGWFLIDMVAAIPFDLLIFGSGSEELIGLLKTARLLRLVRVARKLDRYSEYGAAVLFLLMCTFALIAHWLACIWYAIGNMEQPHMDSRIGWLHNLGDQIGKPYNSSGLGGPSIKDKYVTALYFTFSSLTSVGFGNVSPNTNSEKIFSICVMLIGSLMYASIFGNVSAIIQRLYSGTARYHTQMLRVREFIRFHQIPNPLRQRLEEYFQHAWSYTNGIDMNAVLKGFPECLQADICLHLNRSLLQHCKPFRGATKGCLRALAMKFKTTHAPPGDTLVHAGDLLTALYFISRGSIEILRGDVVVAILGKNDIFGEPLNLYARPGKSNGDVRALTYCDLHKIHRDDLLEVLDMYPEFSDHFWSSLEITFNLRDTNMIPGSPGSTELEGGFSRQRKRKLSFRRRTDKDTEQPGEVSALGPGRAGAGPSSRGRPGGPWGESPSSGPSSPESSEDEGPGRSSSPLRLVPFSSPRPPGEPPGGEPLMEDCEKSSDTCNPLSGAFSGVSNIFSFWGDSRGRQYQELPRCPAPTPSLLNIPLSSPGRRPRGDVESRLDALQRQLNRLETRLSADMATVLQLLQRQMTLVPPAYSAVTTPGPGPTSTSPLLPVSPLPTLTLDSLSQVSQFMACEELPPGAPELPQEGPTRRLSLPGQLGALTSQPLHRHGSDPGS
T1 sequence (P08684 whole entry): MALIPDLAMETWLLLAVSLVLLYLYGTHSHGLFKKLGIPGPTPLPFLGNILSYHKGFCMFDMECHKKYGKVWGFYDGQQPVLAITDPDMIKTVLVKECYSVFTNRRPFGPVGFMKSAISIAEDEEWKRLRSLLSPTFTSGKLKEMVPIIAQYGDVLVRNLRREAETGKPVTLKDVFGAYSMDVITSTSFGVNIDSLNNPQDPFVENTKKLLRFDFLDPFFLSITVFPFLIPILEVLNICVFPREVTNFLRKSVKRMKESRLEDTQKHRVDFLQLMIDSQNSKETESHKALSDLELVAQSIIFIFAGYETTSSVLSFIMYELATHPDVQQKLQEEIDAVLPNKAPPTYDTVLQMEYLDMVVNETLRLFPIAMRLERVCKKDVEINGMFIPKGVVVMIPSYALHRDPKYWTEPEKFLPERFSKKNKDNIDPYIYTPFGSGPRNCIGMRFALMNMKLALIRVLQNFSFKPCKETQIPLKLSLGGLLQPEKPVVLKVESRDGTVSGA

By EC50 is commonly meant the midpoint of the concentration-response curve. As usually defined, the IC50 is the point on the concentration scale where inhibition reaches its midpoint. By half-life is commonly meant the time in which the quantity being followed falls by half. The inhibition is how much of the control response was suppressed. In the case of `N#Cc1ccc(CN2CCC(NC(=O)c3ccc(C(=O)N4CCC(C(=O)c5ccc(F)cc5F)CC4)cn3)CC2)cc1`, the 50% effective concentration (EC50) in [1] is 0.027 µM. The IC50 in series [2] is 0.008 µM; on Cytochrome P450 3A4 [4], more than 10 µM; against Cytochrome P450 3A4 [5], more than 10 µM. Further, in [3], the half-life was determined as 1.05 h. On hERG (KCNH2) [6], this compound displayed an inhibition at 3 µM of 34%.

The clearance is the volume of plasma or blood freed of the substance per unit of time. Read a high clearance as a high capacity for elimination. Regarding `COc1ccc(OC2CCN(C(=O)c3ccc(C(=O)NC4CCN(Cc5ccc(C#N)cc5)CC4)nc3)CC2)cc1`, the EC50 in [1] is 0.011 µM. Besides, the half-inhibitory concentration (IC50) in series [2] is 0.06 µM; at Cytochrome P450 3A4 [4], more than 10 µM; against Cytochrome P450 3A4 [5], more than 10 µM. For the same compound, the half-life in [3] was 1.13 h. This compound also displayed an inhibition at 3 µM against hERG (KCNH2) [6] of 46%. This compound registered a clearance in [7] of 4.26 L/h/kg.

Regarding `O=C(NC1CCN(Cc2ccc(F)cc2)CC1)c1ccc(C(=O)N2CCC(C(=O)c3ccc(N4CCCC4)cc3)CC2)nc1`, the EC50 in series [1] amounted to 0.012 µM. Also, the IC50 in [2] was 0.73 µM; in the series on A549, 8.67 µM; with NCI-H1299, 9.27 µM. Besides, the half-life in series [3] came out at 1.05 h. On hERG (KCNH2) [8], this compound came in with an inhibition at 10 µM of 82%. The same compound came in with a clearance in [7] of 16.1 L/h/kg.

With `O=C(NC1CCN(Cc2ccc(F)cc2)CC1)c1ccc(C(=O)N2CCC(C(=O)c3ccc(-n4cccn4)cc3)CC2)nc1`, the concentration for a half-maximal effect (EC50) in series [1] turned out to be 0.021 µM. Further, the IC50 in series [2] was found to be 0.89 µM; in the series with A549, 5.93 µM; in the series with NCI-H1299, 6.58 µM. This compound also showed an inhibition at 10 µM on hERG (KCNH2) [8] of 85%.

The bioavailability is the share of a dose that reaches the circulation, judged against a reference dose that is usually intravenous. Low readings indicate little systemic uptake, high ones much systemic uptake. In the case of `COc1ccc(C(=O)C2CCN(C(=O)c3ccc(C(=O)NC4CCN(Cc5ccc(C#N)cc5)CC4)cn3)CC2)cc1`, in [1], the EC50 came to 0.031 µM. Also, the IC50 in series [2] is 0.00282 µM; on Cytochrome P450 3A4 [4], more than 10 µM; against Cytochrome P450 3A4 [5], more than 10 µM; in the series with A549 it was more than 20 µM; in the series with NCI-H1299, more than 20 µM. In addition, the figures for the half-life in [3] and in series [9] were 1.18 h and 2.7 h, respectively. On hERG (KCNH2) [6], this compound returned an inhibition at 3 µM of 61%. This compound also showed a clearance in series [7] of 9 L/h/kg. For the same compound, in [10], the Vd was found to be 15.1 L/kg. In series [11], this compound showed an AUC at 10 h of 0.256 µg·h/mL. The compound also had a bioavailability in series [12] of 46%. In addition, the concentration at 240 h in series [13] was found to be 0.084 µg/mL; in series [14], 0.14 µg/mL; in [15], 0.064 µg/mL; in series [16], 0.44 µg/mL. In addition, the AUC in [17] was 1339 ng·h/kg; in [18], 2429 ng·h/kg; in [19], 1283 ng·h/kg; in series [20], 937 ng·h/kg. Further, the outcome in the series with Mus musculus [21] and with Mus musculus [22] was Active.

With `N#Cc1ccc(CN2CCC(NC(=O)c3ccc(C(=O)N4CCN(Cc5ccc(F)cc5)CC4)cn3)CC2)cc1`, in series [1], the EC50 was 0.001 µM. Besides, the half-life in series [3] came out at 0.917 h. Also, the inhibition at 3 µM against hERG (KCNH2) [6] was 36%. This compound also returned a clearance in [7] of 12 L/h/kg.

With `COc1ccc(C(=O)C2CCN(C(=O)c3ccc(C(=O)NC4CCN(Cc5ccc(OC(F)(F)F)cc5)CC4)cn3)CC2)cc1`, in series [1], the EC50 came to 0.009 µM. The IC50 in series [2] was 0.82 µM; with A549 it was more than 20 µM; with NCI-H1299 it was more than 20 µM. This compound also yielded an inhibition at 10 µM on hERG (KCNH2) [8] of 21%.
